Laboratory results from ChEMBL document CHEMBL6103654, “Design, Biological Characterization, and Discovery of Capromorelin Derivatives as Oral Growth Hormone Secretagogue Receptor Type 1a Agonist for the Treatment of Growth Hormone Deficiency” (J Med Chem, 2025).
Calls of active or inactive are those of the source. No cut-off for these calls is given here.

Experiments:
[1] = Plasma protein binding in mouse assessed as unbound fraction measured after 6 hrs by dialysis method; assay type: ADME, cell-free
Rattus norvegicus [2] = assay: Induction of growth hormone level in Juvenile Sprague-Dawley rat blood at 0.5 mg/kg, po administered as single dose measured after 4 hrs by ELISA method (reference value: 32.5+/-4.5 ng/mL); assay type: functional
[3] = Tmax in male mouse at 2 mg/kg, po administered as single dose measured after 4 hrs; assay type: ADME, organism-based; settings: in vivo
[4] = Agonist activity at human GHSR expressed in CHO cells incubated for 60 min by FLIPR assay; assay type: cell-based; settings: 1 h
Rattus norvegicus [5] = assay: Induction of growth hormone level in Juvenile Sprague-Dawley rat blood at 0.2 mg/kg, po administered as single dose measured after 40 mins by ELISA method (reference value: 40.1+/-11.0 ng/mL); assay type: functional
[6] = Volume of distribution in male mouse at 1 mg/kg, iv administered as single dose measured after 4 hrs; assay type: ADME, organism-based; settings: in vivo
[7] = Tmax in male Sprague-Dawley rat at 2 mg/kg, po administered as single dose measured after 4 hrs; assay type: ADME, organism-based; settings: in vivo
Rattus norvegicus [8] = assay: Induction of growth hormone level in adult Sprague-Dawley rat blood at 0.1 mg/kg, po administered as single dose measured after 40 mins by ELISA method (reference value: 14.4+/-6.9 ng/mL); assay type: functional
[9] = Metabolic stability in monkey liver microsome assessed as hepatic clearance at 1 uM measured upto 60 mins in presence of NADPH by LC-MS/MS analysis; assay type: ADME, Macaca mulatta; settings: rhesus monkey, liver microsomes, read-out: CLH
[10] = Metabolic stability in dog liver microsome assessed as half life at 1 uM measured upto 60 mins in presence of NADPH by LC-MS/MS analysis; assay type: ADME, Canis lupus familiaris; settings: liver microsomes
Cytochrome P450 1A2 = target: T1, Cytochrome P450 1A2 (Homo sapiens, UniProt P05177); assay: Inhibition of CYP1A2 in human liver microsome incubated for 5 min in presence of NADPH by UPLC-MS/MS analysis; assay type: ADME, microsomes
T1 sequence (P05177 whole entry): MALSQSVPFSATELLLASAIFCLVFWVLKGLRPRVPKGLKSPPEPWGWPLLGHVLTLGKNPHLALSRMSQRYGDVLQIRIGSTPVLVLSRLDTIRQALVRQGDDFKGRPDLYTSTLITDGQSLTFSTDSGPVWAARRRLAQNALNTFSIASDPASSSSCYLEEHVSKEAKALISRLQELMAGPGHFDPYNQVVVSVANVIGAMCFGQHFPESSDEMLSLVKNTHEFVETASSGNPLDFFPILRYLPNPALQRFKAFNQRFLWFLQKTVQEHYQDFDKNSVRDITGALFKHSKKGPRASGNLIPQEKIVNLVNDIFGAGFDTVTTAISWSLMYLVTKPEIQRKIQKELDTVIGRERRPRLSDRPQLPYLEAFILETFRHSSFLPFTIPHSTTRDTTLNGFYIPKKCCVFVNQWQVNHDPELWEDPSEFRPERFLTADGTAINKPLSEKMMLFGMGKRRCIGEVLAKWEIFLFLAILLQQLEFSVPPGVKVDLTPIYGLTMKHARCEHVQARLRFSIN

[11] = Metabolic stability in rat liver microsome assessed as hepatic clearance at 1 uM measured upto 60 mins in presence of NADPH by LC-MS/MS analysis; assay type: ADME; settings: liver microsomes, read-out: CLH
Rattus norvegicus [12] = assay: Induction of growth hormone level in 4 week-old male Sprague-Dawley rat assessed as increase in body length at 2.5 mg/kg, po measured after 10 days; assay type: functional, organism-based; settings: time 10.0 day
[13] = Metabolic stability in human liver microsome assessed as hepatic clearance at 1 uM measured upto 60 mins in presence of NADPH by LC-MS/MS analysis; assay type: ADME; settings: liver microsomes, read-out: CLH
[14] = Metabolic stability in human liver microsome assessed as intrinsic clearance at 1 uM measured upto 60 mins in presence of NADPH by LC-MS/MS analysis; assay type: ADME; settings: liver microsomes, read-out: CLH
Rattus norvegicus [15] = assay: In vivo agonist activity at GSHR in Sprague-Dawley rat assessed as increase in food consumption at 10 to 100 mg/kg, po administered once daily for 14 days; assay type: functional, organism-based; settings: dose 10-100 mg/kg, time 14.0 day
[16] = Oral bioavailability in male Sprague-Dawley rat at 2 mg/kg administered as single dose measured after 4 hrs; assay type: ADME, organism-based; settings: in vivo
CHO = assay: Agonist activity at human GHSR expressed in CHO cells at maximum concentration incubated for 60 min by FLIPR assay relative to control; assay type: cell-based; settings: filed as agonist
[17] = Agonist activity at dog GHSR expressed in CHO cells incubated for 60 min by FLIPR assay; assay type: cell-based; settings: 1 h
[18] = target: Growth hormone secretagogue receptor type 1 (Rattus norvegicus) (UniProt O08725); assay: Agonist activity at rat GHSR expressed in CHO cells at maximum concentration incubated for 60 min by FLIPR assay relative to control; assay type: functional, cell-based; settings: filed as agonist
Rattus norvegicus [19] = assay: Induction of growth hormone level in Juvenile Sprague-Dawley rat blood at 0.1 mg/kg, po administered as single dose measured after 4 hrs by ELISA method (reference value: 32.5+/-4.5 ng/mL); assay type: functional
[20] = Tmax in male monkey at 2 mg/kg, po administered as single dose measured after 4 hrs; assay type: ADME, organism-based, Macaca mulatta; settings: rhesus monkey, in vivo
Rattus norvegicus [21] = assay: Induction of growth hormone level in Juvenile Sprague-Dawley rat blood at 0.2 mg/kg, po administered as single dose measured after 10 mins by ELISA method (reference value: 23.2+/-5.6 ng/mL); assay type: functional
[22] = Oral bioavailability in male dog at 2 mg/kg administered as single dose measured after 4 hrs; assay type: ADME, organism-based, Canis lupus familiaris; settings: in vivo
Rattus norvegicus [23] = assay: Induction of growth hormone level in Juvenile Sprague-Dawley rat blood at 0.1 mg/kg, po administered as single dose measured immediately by ELISA method (reference value: 28.5+/-8.7 ng/mL); assay type: functional
[24] = Cmax in male dog at 2 mg/kg, po administered as single dose measured after 4 hrs; assay type: ADME, organism-based, Canis lupus familiaris; settings: in vivo
Rattus norvegicus [25] = assay: Induction of growth hormone level in Juvenile Sprague-Dawley rat blood at 0.5 mg/kg, po administered as single dose measured after 10 mins by ELISA method (reference value: 23.2+/-5.6 ng/mL); assay type: functional
[26] = Oral bioavailability in male monkey at 2 mg/kg administered as single dose measured after 4 hrs; assay type: ADME, organism-based, Macaca mulatta; settings: rhesus monkey, in vivo
Rattus norvegicus [27] = assay: Induction of growth hormone level in 4 week-old female Sprague-Dawley rat assessed as increase in body length at 2.5 mg/kg, po measured after 10 days; assay type: functional, organism-based; settings: time 10.0 day
[28] = Toxicity in Sprague-Dawley rat assessed as effect on lymphocyte containing white pulp around central arteriole at 10 to 100 mg/kg, po administered once daily for 14 days by H&E staining based analysis; assay type: organism-based; settings: in vivo, 336 h, dose 10-100 mg/kg, time 14 day
Rattus norvegicus [29] = assay: Induction of growth hormone level in Juvenile Sprague-Dawley rat blood by measuring AUC(0 to 40 mins) at 0.2 mg/kg, po administered as single dose by ELISA method (reference value: 20.2+/-4.3 ng/mL); assay type: functional, organism-based
Rattus norvegicus [30] = assay: Induction of growth hormone level in adult Sprague-Dawley rat blood at 0.1 mg/kg, po administered as single dose measured after 10 mins by ELISA method (reference value: 13.7+/-7.2 ng/mL); assay type: functional

Growth hormone secretagogue receptor type 1 (Rattus norvegicus), sequence (O08725 whole entry): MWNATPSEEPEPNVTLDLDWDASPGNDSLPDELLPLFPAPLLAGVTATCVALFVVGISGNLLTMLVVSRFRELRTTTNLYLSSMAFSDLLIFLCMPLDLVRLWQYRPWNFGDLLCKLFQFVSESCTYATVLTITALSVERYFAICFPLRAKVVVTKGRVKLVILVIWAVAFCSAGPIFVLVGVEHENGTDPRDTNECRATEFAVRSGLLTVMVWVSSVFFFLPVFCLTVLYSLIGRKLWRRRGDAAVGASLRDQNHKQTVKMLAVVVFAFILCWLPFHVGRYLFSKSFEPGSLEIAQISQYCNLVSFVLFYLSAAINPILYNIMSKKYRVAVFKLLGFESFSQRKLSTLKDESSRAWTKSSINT

## CC(C)(N)C(=O)N[C@H](COCc1ccccc1)C(=O)N1CCC2=NN(C3CC3)C(=O)[C@]2(Cc2ccccc2)C1
[1]
  fraction unbound at 6 h: 0.621
Rattus norvegicus [2]
  Activity: 56.7 ng/mL
[3]
  Tmax: 15 min
[4]
  EC50: 0.55 nM
Rattus norvegicus [5]
  Activity: 66.5 ng/mL
[6]
  Vd: 2.94 L/kg
[7]
  Tmax: 15 min
Rattus norvegicus [8]
  Activity: 27.6 ng/mL
[9]
  CLint scaled at 1 µM: 541 mL/min/kg
[10]
  half-life at 1 µM: 10.3 min
Cytochrome P450 1A2
  IC50: > 30000 nM
[11]
  CLint scaled at 1 µM: 342 mL/min/kg
Rattus norvegicus [12]
  Activity: Active
[13]
  CLint scaled at 1 µM: 127 mL/min/kg
[14]
  microsomal CLint at 1 µM: 123 µL/min/mg
Rattus norvegicus [15]
  Activity: Active
[16]
  bioavailability: 16.7%
CHO
  Activity: 152%
[17]
  EC50: 0.043 nM
[18]
  Activity: 96.7%
Rattus norvegicus [19]
  Activity: 41.4 ng/mL
[20]
  Tmax: 79.8 min
Rattus norvegicus [21]
  Activity: 200.8 ng/mL
[22]
  bioavailability: 43.6%
Rattus norvegicus [23]
  Activity: 31.1 ng/mL
[24]
  Cmax: 200 ng/mL
Rattus norvegicus [25]
  Activity: 230.9 ng/mL
[26]
  F: 15.88%
Rattus norvegicus [27]
  Activity: Active
[28]
  Activity: Non-toxic
Rattus norvegicus [29]
  AUC: 102 ng·h/mL
Rattus norvegicus [30]
  Activity: 216.1 ng/mL
